Assay results from patent US9856294B2, “Cyclodecapeptide compounds for use as drugs” (Commissariat A L'Energie Atomique Et Aux Energies …, priority 2010, dated 2018).
Where two headings read alike, the source gives them in different places.

What was measured:
[1] = log Kapp(Hg(II)) - log Kapp(Zn(II)), pH 7.4, 298 K
Source text: (§1) The selectivity between two metals M/M′ corresponds to the selectivity of the ligand for the metal M compared with that for the metal M′, this selectivity being equal to: log(Kapp(M)/Kapp(M′))=log Kapp(M)−log Kapp(M′)

[2] = pH 7.4, 298 K
Source text: These treatments must be followed for life, and must never be interrupted. They are based on chelating drugs which reduce the absorption of copper in the body, or which increase the excretion of this metal. The treatments must be subject to periodic monitoring, so as to detect the appearance of undesirable side effects.
as §1

[3] = log Kapp(Cu(II)) - log Kapp(Zn(II))

Compound | Selectivity Hg/Zn [1] | Selectivity Cu/Zn [2, 3] | Selectivity Cu/Zn ([2]; log Kapp(Cu(I)) - log Kapp(Zn(II)))
OCC(S)CS (stereo not shown) [BAL, 2,3-dimercaptopropanol] | 12.2 |  | 
O=C(O)CN(CCN(CC(=O)O)CC(=O)O)CC(=O)O [EDTA, ethylenediaminetetraacetic acid] | 5 | 2.3 | 
CC(C)(S)[C@@H](N)C(=O)O [Pen, D-penicillamine] | 9.1 |  | 2.5
NCCNCCNCCN [Trien, triethylenetetramine] | 12.7 | 8.1 | 
